How the values were obtained:
[1] = tested on: ACHN; test: Tested in vitro for cytotoxicity against human tumor cell line ACHN (renal).; type: functional
[2] = tested on: HOP-62; test: Tested in vitro for cytotoxicity against human tumor cell line HOP62 (lung); type: functional
[3] = tested on: UACC-62; test: Tested in vitro for cytotoxicity against human tumor cell line UACC 62 (melanoma); type: functional
[4] = tested on: OVCAR-8; test: Tested in vitro for cytotoxicity against human tumor cell line OVCAR8 (ovarian).; type: functional
[5] = tested on: DU-145; test: Tested in vitro for cytotoxicity against human tumor cell line DU-145 (prostate); type: functional
[6] = tested on: SF-268; test: Tested in vitro for cytotoxicity against human tumor cell line SF-268 (CNS).; type: functional
[7] = tested on: NCI/ADR-RES; test: Tested in vitro for cytotoxicity against human tumor cell line MCF-7/ADR (breast); type: functional
[8] = tested on: Panel (56 tumour cell lines); test: Tested in vitro for cytotoxicity against 56 human tumor cell lines; type: functional, cell-based
[9] = tested on: DU-145; test: The compound was tested in vitro for cytotoxicity against human tumor cell line DU-145 (prostate); type: functional
[10] = tested on: ACHN; test: The compound was tested in vitro for cytotoxicity against human tumor cell line ACHN (renal).; type: functional
[11] = tested on: Mus musculus; test: The compound (134 mg/kg) administered intravenously was tested for antitumor activity against DU-145 (prostate) xenograft model in mice; type: functional, Prostate gland
[12] = tested on: NCI-H23; test: (§1) The compound (134 mg/kg) administered intravenously was tested for antitumor activity against NCI-H23 (lung) xenograft model in mice; type: functional, Mus musculus
[13] = tested on: NCI-H23; test: (§2) The compound (90 mg/kg) administered intravenously was tested for antitumor activity against NCI-H23 (lung) xenograft model in mice; type: functional, Mus musculus
[14] = tested on: Mus musculus; test: The compound (200 mg/kg) administered intravenously was tested for antitumor activity against A-498 (renal) xenograft model in mice; type: functional
[15] = tested on: NCI-H23; test: (§3) The compound (200 mg/kg) administered intravenously was tested for antitumor activity against NCI-H23 (lung) xenograft model in mice; type: functional, Mus musculus
[16] = tested on: Mus musculus; test: The compound (134 mg/kg) administered intravenously was tested for antitumor activity against A-498 (renal) xenograft model in mice; type: functional
[17] = tested on: Mus musculus; test: The compound (90 mg/kg) administered intravenously was tested for antitumor activity against A-498 (renal) xenograft model in mice; type: functional
[18] = tested on: Mus musculus; test: The compound (90 mg/kg) administered intravenously was tested for antitumor activity against DU-145 (prostate) xenograft model in mice; type: functional, Prostate gland
[19] = tested on: Mus musculus; test: The compound (200 mg/kg) administered intravenously was tested for antitumor activity against DU-145 (prostate) xenograft model in mice; type: functional, Prostate gland
[20] = tested on: Mus musculus; test: as §3; type: functional
[21] = tested on: Mus musculus; test: as §1; type: functional
[22] = tested on: Mus musculus; test: as §2; type: functional
[23] = tested on: Mus musculus; test: The compound (5 mg/kg) administered intravenously was tested for antitumor activity against DU-145 (prostate) xenograft model in mice; type: functional, Prostate gland
[24] = tested on: Mus musculus; test: The compound (10 mg/kg) administered intravenously was tested for antitumor activity against DU-145 (prostate) xenograft model in mice; type: functional, Prostate gland
[25] = tested on: Mus musculus; test: The compound (2.5 mg/kg) administered intravenously was tested for antitumor activity against A-498 (renal) xenograft model in mice; type: functional
[26] = tested on: NCI-H23; test: The compound (5 mg/kg) administered intravenously was tested for antitumor activity against NCI-H23 (lung) xenograft model in mice; type: functional, Mus musculus
[27] = tested on: Mus musculus; test: The compound (10 mg/kg) administered intravenously was tested for antitumor activity against A-498 (renal) xenograft model in mice; type: functional
[28] = tested on: Mus musculus; test: The compound (2.5 mg/kg) administered intravenously was tested for antitumor activity against DU-145 (prostate) xenograft model in mice; type: functional, Prostate gland
[29] = tested on: Mus musculus; test: The compound (5 mg/kg) administered intravenously was tested for antitumor activity against A-498 (renal) xenograft model in mice; type: functional
[30] = tested on: NCI-H23; test: The compound (10 mg/kg) administered intravenously was tested for antitumor activity against NCI-H23 (lung) xenograft model in mice; type: functional, Mus musculus
[31] = tested on: NCI-H23; test: The compound (2.5 mg/kg) administered intravenously was tested for antitumor activity against NCI-H23 (lung) xenograft model in mice; type: functional, Mus musculus

Compound: CC[C@@]1(O)C(=O)OCc2c1cc1n(c2=O)C(OCCO)c2cc3cc(O)ccc3nc2-1 (some centres undefined)
- GI50 [1]: 3400 nM
- GI50 [2]: 2440 nM
- GI50 [3]: 2120 nM
- GI50 [4]: 2520 nM
- GI50 [5]: 3260 nM
- GI50 [6]: 2100 nM

Compound: CCc1c2c(nc3cccc(OC)c13)-c1cc3c(c(=O)n1C2OCCF)COC(=O)[C@]3(O)CC (some centres undefined)
- GI50 [1]: 1060 nM
- GI50 [7]: 1990 nM
- GI50 [2]: 1220 nM
- GI50 [3]: 2020 nM
- GI50 [4]: 1920 nM
- GI50 [5]: 790 nM
- GI50 [6]: 1890 nM

Compound: CCc1c2c(nc3cccc(OC)c13)-c1cc3c(c(=O)n1C2OCCOC)COC(=O)[C@]3(O)CC (some centres undefined)
- GI50 [1]: 520 nM
- GI50 [7]: 510 nM
- GI50 [2]: 660 nM
- GI50 [3]: 2540 nM
- GI50 [4]: 850 nM
- GI50 [5]: 1140 nM
- GI50 [6]: 590 nM

Compound: CC[C@@]1(O)C(=O)OCc2c1cc1n(c2=O)C(OCCF)c2cc3cc(O)ccc3nc2-1 (some centres undefined)
- GI50 [1]: 500 nM
- GI50 [7]: 4000 nM
- GI50 [2]: 10000 nM
- GI50 [3]: 10000 nM
- GI50 [4]: 4500 nM
- GI50 [5]: 250 nM
- GI50 [6]: 20000 nM

Compound: CCc1c2c(nc3cccc(OC)c13)-c1cc3c(c(=O)n1C2OCCO)COC(=O)[C@]3(O)CC (some centres undefined)
- GI50 [1]: 3820 nM
- GI50 [7]: 5530 nM
- GI50 [2]: 6470 nM
- GI50 [4]: 8400 nM
- GI50 [5]: 5020 nM
- GI50 [6]: 1100 nM

Compound: CCOC1c2c(nc3cccc(OC)c3c2CC)-c2cc3c(c(=O)n21)COC(=O)[C@]3(O)CC (some centres undefined)
- IC50 [8]: 5370 nM

Compound: CC[C@@]1(O)C(=O)OCc2c1cc1n(c2=O)C(OCC(F)(F)F)c2cc3c([N+](=O)[O-])cccc3nc2-1 (some centres undefined)
- GI50 [1]: 20 nM
- GI50 [7]: 70 nM
- GI50 [2]: 500 nM
- GI50 [3]: 160 nM
- GI50 [4]: 130 nM
- GI50 [5]: 60 nM
- GI50 [6]: 90 nM

Compound: CCc1c2c(nc3ccc(O)cc13)-c1cc3c(c(=O)n1C2OCC(F)(F)F)COC(=O)[C@]3(O)CC (some centres undefined)
- GI50 [1]: 400 nM
- GI50 [7]: 400 nM
- GI50 [2]: 2000 nM
- GI50 [3]: 70 nM
- GI50 [4]: 500 nM
- GI50 [5]: 1000 nM
- GI50 [6]: 2000 nM

Compound: CC[C@@]1(O)C(=O)OCc2c1cc1n(c2=O)C(OCCOC)c2cc3cc(O)ccc3nc2-1 (some centres undefined)
- GI50 [1]: 1200 nM
- GI50 [7]: < 10 nM
- GI50 [2]: 4000 nM
- GI50 [3]: 520 nM
- GI50 [4]: 4500 nM
- GI50 [5]: 680 nM
- GI50 [6]: 5000 nM

Compound: CCOC1c2c(nc3ccc(O)cc3c2CC)-c2cc3c(c(=O)n21)COC(=O)[C@]3(O)CC (some centres undefined)
- IC50 [8]: 5000 nM

Compound: CC[C@@]1(O)C(=O)OCc2c1cc1n(c2=O)C(OCCO)c2cc3c([N+](=O)[O-])cccc3nc2-1 (some centres undefined)
- GI50 [1]: 3360 nM
- GI50 [2]: 2450 nM
- GI50 [3]: 2460 nM
- GI50 [4]: 7140 nM
- GI50 [5]: 4130 nM
- GI50 [6]: 4660 nM

Compound: CCOC1c2cc3cccc([N+](=O)[O-])c3nc2-c2cc3c(c(=O)n21)COC(=O)[C@]3(O)CC (some centres undefined)
- IC50 [8]: > 30000 nM

Compound: CC[C@@]1(O)C(=O)OCc2c1cc1n(c2=O)C(OCCOC)c2cc3c([N+](=O)[O-])cccc3nc2-1 (some centres undefined)
- GI50 [9]: 440 nM
- GI50 [2]: 400 nM
- GI50 [3]: 470 nM
- GI50 [4]: 970 nM
- GI50 [6]: 1000 nM
- GI50 [10]: 430 nM

Compound: CCc1c2c(nc3cccc(OC)c13)-c1cc3c(c(=O)n1C2OCC(F)(F)F)COC(=O)[C@]3(O)CC (some centres undefined)
- GI50 [1]: 2830 nM
- GI50 [7]: 1840 nM
- GI50 [2]: 1580 nM
- GI50 [3]: 4680 nM
- GI50 [4]: 2630 nM
- GI50 [5]: 3900 nM
- GI50 [6]: 2130 nM

Compound: CCOC1c2cc3c([N+](=O)[O-])cccc3nc2-c2cc3c(c(=O)n21)COC(=O)[C@]3(O)CC (some centres undefined)
- IC50 [8]: 27500 nM

Compound: CCc1c2c(nc3ccc(O)cc13)-c1cc3c(c(=O)n1C2OCCOC)COC(=O)[C@]3(O)CC (some centres undefined)
- GI50 [1]: 600 nM
- GI50 [7]: 200 nM
- GI50 [2]: 20000 nM
- GI50 [3]: 600 nM
- GI50 [4]: 100 nM
- GI50 [5]: 550 nM
- GI50 [6]: > 30000 nM

Compound: CC[C@@]1(O)C(=O)OCc2c1cc1n(c2=O)C(OCC(F)(F)F)c2cc3cc(O)ccc3nc2-1 (some centres undefined)
- T-C/C [11]: 4%
- T-C/C [12]: 58%
- GI50 [1]: 100 nM
- T-C/C [13]: 12%
- GI50 [7]: 200 nM
- GI50 [2]: 60 nM
- T-C/C [14]: 27%
- GI50 [3]: 100 nM
- T-C/C [15]: 58%
- T-C/C [16]: 46%
- T-C/C [17]: 46%
- T-C/C [18]: 8%
- GI50 [4]: 260 nM
- GI50 [5]: 100 nM
- T-C/C [19]: 21%
- GI50 [6]: 30 nM

Compound: CCOC1c2cc3c(O)cccc3nc2-c2cc3c(c(=O)n21)COC(=O)[C@]3(O)CC (some centres undefined)
- T-C/C [11]: 27%
- T-C/C [14]: 6%
- IC50 [8]: 200 nM
- T-C/C [20]: 12%
- T-C/C [16]: 8%
- T-C/C [17]: 23%
- T-C/C [18]: 9%
- T-C/C [19]: 33%
- T-C/C [21]: 15%
- T-C/C [22]: 8%

Compound: CCOC1c2cc3cc(O)ccc3nc2-c2cc3c(c(=O)n21)COC(=O)[C@]3(O)CC (some centres undefined)
- IC50 [8]: 2880 nM

Compound: CCc1c2c(nc3ccc(O)cc13)-c1cc3c(c(=O)n1C2OCCF)COC(=O)[C@]3(O)CC (some centres undefined)
- GI50 [1]: 8000 nM
- GI50 [7]: 100 nM
- GI50 [2]: 25000 nM
- GI50 [3]: 1000 nM
- GI50 [4]: 500 nM
- GI50 [5]: 1000 nM
- GI50 [6]: > 30000 nM

Compound: CC[C@@]1(O)C(=O)OCc2c1cc1n(c2=O)C(OCCF)c2cc3c([N+](=O)[O-])cccc3nc2-1 (some centres undefined)
- GI50 [1]: 250 nM
- GI50 [7]: 200 nM
- GI50 [2]: 360 nM
- GI50 [3]: 400 nM
- GI50 [4]: 740 nM
- GI50 [5]: 630 nM
- GI50 [6]: 310 nM

Compound: CCOC1c2c(nc3cccc(O)c3c2CC)-c2cc3c(c(=O)n21)COC(=O)[C@]3(O)CC (some centres undefined)
- IC50 [8]: 4670 nM

Compound: CC[C@@]1(O)C(=O)OCc2c1cc1n(c2=O)Cc2cc3ccccc3nc2-1 [CAMPTOTHECIN]
- IC50 [8]: 40 nM

Compound: CC[C@@]1(O)C(=O)OCc2c1cc1n(c2=O)Cc2cc3c(CN(C)C)c(O)ccc3nc2-1 [TOPOTECAN]
- T-C/C [23]: 35%
- GI50 [1]: 40 nM
- T-C/C [24]: 339%
- T-C/C [25]: 11%
- GI50 [7]: 70 nM
- GI50 [2]: 50 nM
- T-C/C [26]: 6%
- T-C/C [27]: 47%
- IC50 [8]: 160 nM
- GI50 [3]: 30 nM
- T-C/C [28]: 83%
- GI50 [4]: 200 nM
- T-C/C [29]: 67%
- GI50 [5]: 40 nM
- GI50 [6]: 80 nM
- T-C/C [30]: 60%
- T-C/C [31]: 10%
